Legend:
SYK = target: T1, SYK (Homo sapiens, UniProt P43405); test: Kinase inhibition assay: SYK; assay type: biochemical; settings: at 1 μM concentration
T1 construct: Purified full-length human SYK, ZAP70, PIM1, PYK2; purchased Carna Biosciences

HEL cells = test: Cell viability assay: JAK2 inhibition; assay type: cell-based, human
Method: Compounds of the invention are tested for their effects on JAK2 inhibition in human erythroleukemic cell line (HEL) to illustrate potential efficacy at the cellular level. The Janus-associated kinase (JAK) family, comprised of four different protein tyrosine kinases JAK1, JAK2, JAK3, and TYK2, plays an important role in cellular survival, proliferation, and differentiation. V617F, a unique mutation in the JAK2 gene (a valine-to-phenylalanine substitution) results in constitutive kinase activity and promotes deregulated hematopoiesis. JAK2 V617F is frequently detected in myeloproliferative disorders (MPDs), a group of clonal hematopoietic stem cell disorders that include polycythemia vera (PV), essential thrombocythemia (ET), and idiopathic myelofibrosis (IMF), all of which have the potential to transform to acute myeloid leukemia. JAK2 V617F is constitutively phosphorylated and able to activate downstream signaling in the absence of cytokine stimulation.
Compounds of the present invention were tested for their effects on viability of HEL cells. For cell viability assay, HEL cells expressing human JAK2 V617F were obtained from the American Type Culture Collection (ATCC, Manassas, Va.). This cell line was maintained with Roswell Park Memorial Institute (RPMI) medium (HyClone™) containing 10 bovine calf serum (BCS; Hyclone™) supplemented iron. The HEL cells were seeded at 2×10^4 cells in 96 well culture plates, and serially diluted compound was then added. After a 72-hour incubation period at 37° C., viability of cells was measured using the ATPLite 1 step assay (Perkin-Elmer™) that is based on the quantification of ATP from viable cells. CellTiter Aqueous assay (Promega™) was also performed in parallel as an orthogonal assay. IC50 values were calculated using nonlinear regression and defined as the concentration needed for a 50 reduction in luminescence or absorbance treated versus untreated control cells (Prism™ Software).

ABL1(T315I) = target: T2, ABL1(T315I) (Homo sapiens, UniProt P00519, T315I); test: In vitro kinase inhibition profile (Ambit Biosciences); assay type: binding; settings: reported as percent control, lower numbers indicate stronger activities
T2 construct: purchased Ambit Biosciences
Method: (§1) Up to 518 different kinases have been identified in humans. To determine the scope of inhibitory effects of a representative compound of Formula (I) on known kinases, Compound 82 was tested against 104 commercially available kinases (Ambit Biosciences™). 104 kinases included ABL1(E255K)-phosphorylated, ABL1(T315I)-phosphorylated, ABL1-phosphorylated, ACVR1B, ADCK3, AKT1, AKT2, ALK, AURKA, AURKB, AXL, BMPR2, BRAF, BRAF(V600E), BTK, CDK11, CDK2, CDK3, CDK7, CDK9, CHEK1, CSF1R, CSNK1D, CSNK1G2, DCAMKL1, DYRK1B, EGFR, EGFR(L858R), EPHA2, ERBB2, ERBB4, ERK1, FAK, FGFR2, FGFR3, FLT1, FLT3, FLT4, GSK3B, IGF1R, IKK-α, IKK-β, INSR, JAK2(JH1domain-catalytic), JAK3 (JH1 domain-catalytic), JNK 1, JNK2, JNK3, KIT, KIT(D816V), KIT(V559D,T6701), LKB1, LRRK2, LRRK2(G2019S), MAP3K4, MAPKAPK2, MARKS, MEK1, MEK2, MET, MKNK1, MKNK2, MLK1, MTOR, p38-alpha, p38-beta, PAK1, PAK2, PAK-4, PCTK1, PDGFRA, PDGFRB, PDPK1, PIK3C2B, PIK3CA, PIK3CG, PIM1, PIM2, PIM3, PKAC-alpha, PLK1, PLK3, PLK4, PRKCE, PYK2, RAF1, RET, R10K2, ROCK2, RSK2, SNARK, SRC, SRPK3, SYK, TAK1, TGFBR1, TIE2, TRKA, TSSK1B, TYK2(JH1domain-catalytic), ULK2, VEGFR2, YANK3 and ZAP70.
(§2) Inhibition activity of Compound 82 was reported as percent control where lower numbers indicate stronger activities.

AURKB = target: T3, AURKB (Homo sapiens, UniProt Q96GD4); test: as above; assay type: binding; settings: reported as percent control, lower numbers indicate stronger activities
T3 construct: purchased Ambit Biosciences
T3 sequence (Q96GD4 whole entry): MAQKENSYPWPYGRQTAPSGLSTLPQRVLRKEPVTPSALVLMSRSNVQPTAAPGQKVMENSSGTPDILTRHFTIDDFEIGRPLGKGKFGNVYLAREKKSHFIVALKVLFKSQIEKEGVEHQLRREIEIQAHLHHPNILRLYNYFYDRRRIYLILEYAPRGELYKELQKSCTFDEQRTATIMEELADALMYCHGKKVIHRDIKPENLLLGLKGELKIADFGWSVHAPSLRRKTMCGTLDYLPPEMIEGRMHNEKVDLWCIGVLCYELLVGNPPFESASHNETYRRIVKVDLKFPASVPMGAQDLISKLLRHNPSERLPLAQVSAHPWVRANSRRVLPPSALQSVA
Method: as §1, §2

AXL = target: T4, AXL (Homo sapiens, UniProt P30530); test: as above; assay type: binding; settings: reported as percent control, lower numbers indicate stronger activities
T4 construct: purchased Ambit Biosciences
T4 sequence (P30530 26-894): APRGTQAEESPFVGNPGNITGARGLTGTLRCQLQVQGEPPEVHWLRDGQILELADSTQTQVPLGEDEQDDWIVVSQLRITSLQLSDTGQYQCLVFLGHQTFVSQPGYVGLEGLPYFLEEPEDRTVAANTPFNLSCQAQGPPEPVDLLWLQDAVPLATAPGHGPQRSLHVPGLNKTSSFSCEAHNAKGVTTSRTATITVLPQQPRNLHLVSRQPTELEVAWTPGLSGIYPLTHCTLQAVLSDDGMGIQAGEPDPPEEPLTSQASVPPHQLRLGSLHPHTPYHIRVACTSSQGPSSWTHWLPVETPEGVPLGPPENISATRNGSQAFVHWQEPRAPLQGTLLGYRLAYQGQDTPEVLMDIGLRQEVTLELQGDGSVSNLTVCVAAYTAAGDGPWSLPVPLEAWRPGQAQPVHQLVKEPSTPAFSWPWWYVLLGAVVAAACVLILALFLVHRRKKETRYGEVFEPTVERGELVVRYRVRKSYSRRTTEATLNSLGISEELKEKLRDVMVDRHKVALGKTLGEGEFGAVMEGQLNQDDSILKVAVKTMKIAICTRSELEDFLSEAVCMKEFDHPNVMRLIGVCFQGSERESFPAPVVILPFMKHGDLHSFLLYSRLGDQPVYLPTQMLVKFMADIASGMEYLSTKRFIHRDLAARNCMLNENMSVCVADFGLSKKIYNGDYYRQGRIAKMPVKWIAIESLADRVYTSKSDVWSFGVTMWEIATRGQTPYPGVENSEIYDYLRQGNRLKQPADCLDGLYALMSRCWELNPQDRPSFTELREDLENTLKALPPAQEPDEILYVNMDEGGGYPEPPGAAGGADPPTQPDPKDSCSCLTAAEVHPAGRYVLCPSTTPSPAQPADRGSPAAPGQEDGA
Method: as §1, §2

FLT3 = target: T5, FLT3 (Homo sapiens, UniProt P36888); test: as above; assay type: binding; settings: reported as percent control, lower numbers indicate stronger activities
T5 construct: purchased Ambit Biosciences
T5 sequence (P36888 27-993): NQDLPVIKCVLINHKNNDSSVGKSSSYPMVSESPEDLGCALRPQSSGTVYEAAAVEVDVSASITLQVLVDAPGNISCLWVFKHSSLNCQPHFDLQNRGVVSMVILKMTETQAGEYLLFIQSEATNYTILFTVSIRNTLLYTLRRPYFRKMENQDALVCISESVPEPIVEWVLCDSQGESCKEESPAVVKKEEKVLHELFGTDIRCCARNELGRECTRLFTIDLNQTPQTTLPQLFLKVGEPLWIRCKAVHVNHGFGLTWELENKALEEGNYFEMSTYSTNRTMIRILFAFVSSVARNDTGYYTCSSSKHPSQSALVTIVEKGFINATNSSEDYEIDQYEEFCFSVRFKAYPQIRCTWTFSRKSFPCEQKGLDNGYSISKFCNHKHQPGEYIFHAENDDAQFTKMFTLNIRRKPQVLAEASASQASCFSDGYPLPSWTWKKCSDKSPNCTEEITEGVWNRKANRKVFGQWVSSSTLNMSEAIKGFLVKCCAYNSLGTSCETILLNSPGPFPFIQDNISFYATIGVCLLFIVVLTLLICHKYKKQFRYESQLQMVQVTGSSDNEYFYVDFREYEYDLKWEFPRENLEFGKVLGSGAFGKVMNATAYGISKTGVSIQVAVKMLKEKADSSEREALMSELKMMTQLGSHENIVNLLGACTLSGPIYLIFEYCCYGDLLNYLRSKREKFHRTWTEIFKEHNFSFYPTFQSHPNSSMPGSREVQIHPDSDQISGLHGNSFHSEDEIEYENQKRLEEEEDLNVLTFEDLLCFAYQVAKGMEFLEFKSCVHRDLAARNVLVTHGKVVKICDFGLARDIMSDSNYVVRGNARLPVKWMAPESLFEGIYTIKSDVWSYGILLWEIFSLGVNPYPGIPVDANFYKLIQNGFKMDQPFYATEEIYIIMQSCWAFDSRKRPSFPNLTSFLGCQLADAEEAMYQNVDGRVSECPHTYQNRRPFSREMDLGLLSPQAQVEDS
Method: as §1, §2

JAK3 = target: T6, JAK3 (Homo sapiens, UniProt P52333); test: as above; assay type: binding; settings: reported as percent control, lower numbers indicate stronger activities
T6 construct: JAK3 (JH1 domain-catalytic); purchased Ambit Biosciences
T6 sequence (P52333 822-1111 limits assumed): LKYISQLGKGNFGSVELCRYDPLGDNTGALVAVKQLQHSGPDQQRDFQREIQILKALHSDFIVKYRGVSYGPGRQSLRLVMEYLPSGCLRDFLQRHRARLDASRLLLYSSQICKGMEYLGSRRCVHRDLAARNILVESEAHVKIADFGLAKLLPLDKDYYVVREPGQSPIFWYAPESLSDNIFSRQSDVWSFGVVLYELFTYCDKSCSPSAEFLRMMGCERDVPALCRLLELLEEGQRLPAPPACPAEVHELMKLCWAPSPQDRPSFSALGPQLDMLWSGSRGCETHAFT
Method: as §1, §2

KIT = target: T7, KIT (Homo sapiens, UniProt P10721); test: as above; assay type: binding; settings: reported as percent control, lower numbers indicate stronger activities
T7 construct: purchased Ambit Biosciences
T7 sequence (P10721 26-976): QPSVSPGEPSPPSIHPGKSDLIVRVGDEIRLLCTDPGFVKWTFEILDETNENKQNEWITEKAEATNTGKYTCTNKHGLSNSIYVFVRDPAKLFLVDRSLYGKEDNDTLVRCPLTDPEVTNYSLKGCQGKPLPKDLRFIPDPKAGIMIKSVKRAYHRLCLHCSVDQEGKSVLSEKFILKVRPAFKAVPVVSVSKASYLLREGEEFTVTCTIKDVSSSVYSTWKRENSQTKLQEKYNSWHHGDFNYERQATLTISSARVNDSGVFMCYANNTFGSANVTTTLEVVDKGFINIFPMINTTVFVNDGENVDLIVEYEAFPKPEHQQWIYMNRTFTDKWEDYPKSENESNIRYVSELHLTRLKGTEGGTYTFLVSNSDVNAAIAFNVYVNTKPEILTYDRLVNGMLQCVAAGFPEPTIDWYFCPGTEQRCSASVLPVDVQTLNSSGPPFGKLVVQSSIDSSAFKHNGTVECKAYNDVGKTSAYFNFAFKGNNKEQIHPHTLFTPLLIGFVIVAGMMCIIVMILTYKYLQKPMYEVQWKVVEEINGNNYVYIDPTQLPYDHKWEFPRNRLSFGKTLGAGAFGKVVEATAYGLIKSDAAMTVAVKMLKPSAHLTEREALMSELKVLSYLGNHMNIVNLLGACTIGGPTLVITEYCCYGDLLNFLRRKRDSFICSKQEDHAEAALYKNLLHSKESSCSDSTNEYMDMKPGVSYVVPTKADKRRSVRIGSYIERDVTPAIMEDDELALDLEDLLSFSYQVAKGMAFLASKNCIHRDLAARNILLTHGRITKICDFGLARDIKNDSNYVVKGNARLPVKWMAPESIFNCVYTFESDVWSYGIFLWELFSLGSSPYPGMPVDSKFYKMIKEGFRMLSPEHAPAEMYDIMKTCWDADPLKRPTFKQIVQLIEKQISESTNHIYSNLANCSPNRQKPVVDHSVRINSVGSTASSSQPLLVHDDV
Method: as §1, §2

KIT(D816V) = target: T8, KIT(D816V) (Homo sapiens, UniProt P10721, D816V); test: as above; assay type: binding; settings: reported as percent control, lower numbers indicate stronger activities
T8 construct: purchased Ambit Biosciences
T8 sequence (P10721 26-976 D816V): as the sequence (P10721 26-976) above, with D791V counted along it
Method: as §1, §2

KIT(V559D,T6701) = target: T9, KIT(V559D,T6701) (Homo sapiens, UniProt P10721, T670I/V559D); test: as above; assay type: binding; settings: reported as percent control, lower numbers indicate stronger activities
T9 construct: purchased Ambit Biosciences
T9 sequence (P10721 26-976 V559D/T670I): as the sequence (P10721 26-976) above, with V534D, T645I counted along it
Method: as §1, §2

MKNK2 = target: T10, MKNK2 (Homo sapiens, UniProt Q9HBH9); test: as above; assay type: binding; settings: reported as percent control, lower numbers indicate stronger activities
T10 construct: purchased Ambit Biosciences
T10 sequence (Q9HBH9 whole entry): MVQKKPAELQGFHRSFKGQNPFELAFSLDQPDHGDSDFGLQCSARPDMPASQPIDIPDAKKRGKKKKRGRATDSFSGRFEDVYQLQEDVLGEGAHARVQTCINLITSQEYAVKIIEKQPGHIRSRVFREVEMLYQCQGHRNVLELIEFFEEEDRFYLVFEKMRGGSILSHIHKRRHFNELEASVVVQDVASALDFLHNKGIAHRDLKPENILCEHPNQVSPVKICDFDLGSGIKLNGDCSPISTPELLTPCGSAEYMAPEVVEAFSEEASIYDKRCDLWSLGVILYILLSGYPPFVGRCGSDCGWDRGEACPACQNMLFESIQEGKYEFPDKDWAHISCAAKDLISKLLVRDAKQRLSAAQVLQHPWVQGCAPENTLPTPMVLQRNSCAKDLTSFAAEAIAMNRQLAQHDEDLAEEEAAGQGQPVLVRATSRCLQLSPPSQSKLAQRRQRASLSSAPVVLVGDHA
Method: as §1, §2

SMILES	inhibition at 1 µM (SYK)	inhibition level compared with Sorafenib (HEL cells; HEL)	IC50 (HEL cells; Homo sapiens, 72-hour incubation, HEL cells expressing JAK2 V617F, read-out: Cell Viability: JAK2 kinase Inhibition HEL (IC50 nM))	% of control ABL1(T315I) (ABL1(T315I))	% of control binding (AURKB)	% of control AXL (AXL)	% of control (FLT3)	% of control JAK3 (JAK3)	% of control (remaining binding) (KIT)	% of control (KIT(D816V))	Percent of control (KIT(V559D,T6701))	% of control binding MKNK2 (MKNK2)
COc1cc(Nc2ncc(C)c(-n3cc(C)c(CO)c3)n2)cc(OC)c1OC [Compound 21, (4-methyl-1-(5-methyl-2-(3,4,5-trimethoxyphenylamino)pyrimidin-4-yl)-1H-pyrrol-3-yl)methanol]	96.4%	greater than those exhibited by Sorafenib	144 nM									
Cc1cc(C)cc(Nc2ncc(F)c(-n3cc(C)c(CN4CC[C@@H](O)C4)c3)n2)c1 [Compound 82, (R)-1-((1-(2-(3,5-dimethylphenyl-amino)-5-fluoropyrimidin-4-yl)-4-methyl-1H-pyrrol-3-yl)methyl) pyrrolidin-3-ol]				35%	31%	31%	1.1%	5.4%	26%	0.45%	28%	34%

From patent publication US8629132B2, “Kinase inhibitors” (Genosco, priority 2009, dated 2014)
